Laboratory results: patent US20220079952A1, “Uses of Radiation and Benzodiazepine Derivatives in Cancer Therapies” (Emory University, priority 2019, published 2022)

How the values were obtained:
[1] = test system: medulloblastoma cancer cells; conditions: sustained incubation; cited from earlier work
[2] = test system: A375 cells; test: Melanoma cell viability, 48 hours treatment, A375; format: cell-based, human; conditions: for IC50: Homo sapiens, A-375, A375, 48 hours, read-out: IC50, reduction in cell viability; for effect on cell viability: A375
Procedure: (§1) The electrophysiology whole-cell patch clamp experiments occur within a minute. […] To determine their effect on melanoma cell survival, A375 and B16F10 were treated with QH-II-066, KRM-II-08, or diazepam for 48 hours.

[3] = test system: GABAAR; test: Whole-cell patch clamp electrophysiology in B16F10 melanoma cells; format: cell-based, murine; conditions: for EC50: read-out: EC50, enhancement of the effect of GABA, [GABA]=1 μM, benzodiazepine 0-10 μM
Procedure: (§2) GABAAR is an anion (Cl—) channel that changes the transmembrane potential of cells, either depolarizing or hyperpolarizing depending upon channel directionality and activity of other membrane transport protein. To establish autonomous expression of GABAAR subunits in melanoma cell lines results in assembly of a functional ligand-dependent channel, electrophysiological testing was performed in human melanoma (A375) and murine (B16F10) lines. Patch clamp currents were recorded for A375 and B16F10. […] A fully functional benzodiazepine binding site requires assembly of a GABAAR with a canonical αβαβγ subunit stoichiometry.
(§3) Two benzodiazepines were tested (QH-II-066 and KRM-II-08). QH-II-066 and KRM-II-08 differ in having H and F at R2′ of the benzene ring of benzodiazepine, respectively.

[4] = test system: B16F10 cells; test: Melanoma cell viability, 48 hours treatment, B16F10; format: cell-based, murine; conditions: for IC50: Mus musculus, B16-F10, B16F10, 48 hours, read-out: IC50, reduction in cell viability; for effect on cell viability: B16F10
Procedure: as §1

[5] = test system: GABAAR; test: Whole-cell patch clamp electrophysiology in A375 melanoma cells; format: cell-based, human; conditions: for mode of action at GABAAR from electrophysiology: A375 and B16F10 cells; for EC50: read-out: EC50, enhancement of the effect of GABA, [GABA]=1 μM, benzodiazepine 0-10 μM
Procedure: as §2, §3

[6] = test system: B16F10-GP tumor; test: B16F10-GP syngeneic melanoma murine model, bilateral flank tumors, tumor volume; format: in vivo, C57BL/6 mice
Procedure: The clinical observation of improved outcome for RT-ICI was analyzed using a murine model. B16F10-GP cells (0.5×10^5) were implanted in both right and left flanks of C57BL/6 mice (FIG. 1A). A single dose of radiation at 10 Gy was delivered to the right flank only using a 0.5 cm bolus material, on Day 10 after implanting the melanoma cells. Day 10 was chosen to allow for growth of tumor cells in flanks to the point where they became palpable. […] Anti-PD-L1 was given by intraperitoneal injection every third day.
Since melanoma cell viability in vitro was impaired by benzodiazepines QH-II-066 and KRM-II-08, experiments were performed to determine if benzodiazepine had anti-tumor activity in vivo. […] Given that immune checkpoint inhibitor efficacy is enhanced by radiation therapy, experiments were performed to determine whether RT combined with QH-II-066 synergize to control ipsilateral and abscopal tumor volume using the B16F10-GP syngeneic melanoma murine model. B16F10-GP melanoma cells were implanted (0.5×10^5) in both right and left flanks of C57BL/6 mice (FIG. 3B). A single dose of radiation (either 10 or 5 Gy) was delivered to the right flank on Day 10 after implanting of B16F10-GP cells. […] There was no difference when using different radiation doses (10 or 5 Gy).
Having observed that QH-II-066 could sensitize a melanoma tumor to radiation and that expression of genes with roles in the cytokine:cytokine receptor interaction pathway was enhanced, experiments were performed to determine if QH-II-066 was capable of potentiating the programmed death ligand 1 immune checkpoint inhibitor (anti-PD-L1). B16F10-GP melanoma cells were implanted in both the right and left flanks of C57BL/6 mice. Day 10 in both the right and left flanks injected i.p.: (i) QH-II-066 (10 mg/kg), then every day for seven days; (ii) anti-PD-L1 (200 μg), then every third day thereafter; (iii) QH-II-066 (10 mg/kg) and anti-PD-L1 (200 μg) at time and frequency detailed for monotherapy treatment groups (FIG. 5).
Having observed potentiation of radiation and anti-PD-L1 by QH-II-066 individually, there might be a more significant tumor response if we administered a ‘combo’ consisting of radiation (5 Gy), anti-PD-L1, plus QH-II-066. As before, B16F10-GP melanoma cells were implanted in both the right and left flanks of C57BL/6 mice (FIG. 5). The following experimental groups were tested: (i) vehicle alone control; (ii) QH-II-066 alone (10 mg/kg); (iii) a single morning dose of radiation (5 Gy) delivered to the right flank, followed by evening dose of QH-II-066 (10 mg/kg); (iv) anti-PD-L1 plus QH-II-066; (v) a single morning dose of radiation (5 Gy) delivered to the right flank, followed by an evening dose of anti-PD-L1; (vi) a triple or combo therapy, consisting of a single morning dose of radiation (5 Gy) delivered to the right flank, followed by evening doses of anti-PD-L1 plus QH-II-066. After initial i.p. injection of QH-II-066 on Day 10, QH-II-066 was injected i.p. every day for seven days; while anti-PD-L1 was injected i.p. every third day thereafter.
B16F10-GP cell line was grown in Dulbecco's Modified Eagle's medium (DMEM) supplemented with 10% Fetal Bovine Serum, 100 U/mL penicillin and 100 μg/mL streptomycin, 2 mM glutamine. Cells were cultured at 37° C. with 5% CO2.
B16F10-GP melanoma cells ([…]) were implanted in matrigel (25%) on right and left flank of 6-8 week old female C57BL/6 mice (Jackson Laboratories, Bar Harbor, Me.). […]

[7] = test system: CD8+ T cells in B16F10-GP tumors; test: Immunophenotyping of tumor infiltrating lymphocytes of bilateral B16F10-GP tumors by flow cytometry; format: in vivo, C57BL/6 mice
Procedure: Mice were sacrificed and tumor infiltrating lymphocytes (TILs) were isolated, stained, and analyzed using flow cytometry. For cytokine analysis, TILs were stimulated with GP33 peptide for 6 hours in presence of GolgiStop™ and GolgiPlug™ and analyzed using flow cytometry. Tumor weight and Lymphocyte number per gram tumor.
To determine whether these apparent synergistic effects were mediated by an enhanced immune response, immunophenotyping of bilateral tumors was performed. […] (FIG. 4A-4E).

[8] = non-human primates, previously tested; cited from earlier work
[9] = test system: A375 and B16F10 cells; test: p53 expression and mitochondrial transmembrane potential in melanoma cells; format: cell-based, human and murine
Procedure: Changes induced by the benzodiazepine as a consequence of creating a net efflux of chloride anion, included an upregulation of TP53 and a depolarization of the mitochondrial transmembrane potential, ultimately resulting in apoptosis via the intrinsic mitochondria-mediated pathway. Thus, Experiments were performed to determine if benzodiazepine elicited a similar response in A375 and B16F10 cells.

Structure (SMILES) | effectiveness in impairing cell viability versus diazepam [1] | IC50 [2] [µM] | EC50 [3] [µM] | IC50 [4] [µM] | mode of action at GABAAR from electrophysiology [5] | EC50 ([5]; A375 cells) [µM] | effect on cell viability [2] | effect on cell viability [4] | other results
C#Cc1ccc2c(c1)C(c1ccccc1F)=NCC(=O)N2C [KRM-II-08, 7-ethynyl-5-(2-fluorophenyl)-1-methyl-1,3-dihydro-2H-benzo[e][1,4]diazepin-2-one] | more than an order of magnitude improved effectiveness | 1.33 ± 0.08 | 0.2 ± 0.1 | 6.1 ± 0.8 | GABAAR positive allosteric modulators | 1.7 ± 0.2 |  |  | 
NCCCC(=O)O [GABA, gamma-aminobutyric acid, reference compound] |  |  |  |  |  |  |  |  | maximal response to GABA (current) ([3]; patch clamp, n=6): −430±70 pA; maximal response to GABA (current) ([5]; A375 cells, patch clamp, n=8): −230±41 pA
C#Cc1ccc2c(c1)C(c1ccccc1)=NCC(=O)N2C [QH-II-066, 7-ethynyl-1-methyl-5-phenyl-1,3-dihydro-2H-benzo[e][1,4]diazepin-2-one] | more than an order of magnitude improved effectiveness | 2.7 ± 0.2 | 0.16 ± 0.09 | 8.2 ± 0.9 | GABAAR positive allosteric modulators | 0.9 ± 0.4 |  |  | ipsilateral and abscopal tumor effect, combo of radiation, anti-PD-L1 and QH-II-066 ([6]; 5 Gy right flank Day 10, then anti-PD-L1 200 μg every third day plus QH-II-066 10 mg/kg daily 7 days): complete tumor regression in some animals; B16F10-GP tumor growth, monotherapy dose response ([6]; 10, 25 and 50 mg/kg i.p. daily for a week, negligible difference between 25 and 50 mg/kg): dose-dependent reduction; anti-tumor effect on ipsilateral and contralateral tumor, combination with radiation therapy ([6]; 10 or 5 Gy right flank Day 10, then QH-II-066 10 mg/kg daily 7 days): strongly synergistic anti-tumor effect; tumor volume, dual therapy QH-II-066 and anti-PD-L1 ([6]; QH-II-066 10 mg/kg daily 7 days plus anti-PD-L1 200 μg every third day): most significant reduction in tumor volume; tumor volume, monotherapy ([6]; QH-II-066 10 mg/kg i.p. daily 7 days or anti-PD-L1 200 μg i.p. every third day, from Day 10): comparable reductions in tumor volume; CD8+ T cell infiltration of ipsilateral tumor, radiation in combination with QH-II-066 ([7]; 10 or 5 Gy plus QH-II-066, compared to vehicle): enhanced infiltration of CD8+ T cells; CD8+ T cell infiltration of tumor, QH-II-066 alone ([7]; QH-II-066 10 mg/kg alone, compared to vehicle): did not induce CD8+ T cell infiltration; antigen-specific, poly-functional T cells (expressing IFN-γ and TNF-α) in ipsilateral and contralateral tumors ([7]; ipsilateral radiation therapy + systemic QH-II-066): significant increase; adverse side effects or toxicity [8]: without any adverse side effects or toxicity; expression of p53 [9]: enhanced expression of p53; time to depolarization of the mitochondrial transmembrane potential [9]: ≤ 10 min
CN1C(=O)CN=C(c2ccccc2)c2cc(Cl)ccc21 [diazepam, reference compound] |  |  |  |  |  |  | no effect | no effect | 
CC(=O)[C@H]1CC[C@H]2[C@@H]3CC[C@H]4C[C@H](O)CC[C@]4(C)[C@H]3CC[C@]12C [Allopregnanolone, allopregnanolone, reference compound] |  |  |  |  |  |  | does not impair | does not impair | 
